Results published in patent US9487561B2, “Biologically active complex and its preparation” (HAMLET PHARMA AB, priority 2010, dated 2016).
“Also recorded” adds a separate entry of the source.

Assays:
[1] = tested on: lymphoma cells (Jurkat cells); assay: cell death assay with inhibitors; format: cell-based; details: SB202190 20 μM; HAMLET 7-49 μM, 3 h
Protocol: GAPDH was used as a loading control.
(§1) Cells were detached from cell culture flasks with versen (0.2 g EDTA in 200 ml H2O and 800 ml PBS), washed with PBS and resuspended in serum-free RPMI-1640. HAMLET dissolved in PBS was incubated with cells (0.5×10^6/ml for A549, A498 and HeLa cells; 1×10^6/ml for Jurkat) at 37° C. FCS was added after 1 hour. Cell death was quantified by trypan blue exclusion (Chroma Gesellschaft Schmid & Co) or by measuring ATP levels (ATPlite Kit, PerkinElmer, Infinite 200, Tecan). Light images were captured using the HOLOMONITOR™ M2 digital holographic microscope (Phase Holographic Imaging AB, Lund, Sweden).
(§2) For studies with inhibitors, cells were pretreated for 30 minutes. Inhibitors used were Gadolinium chloride (GdCl3, 100 μM), Barium chloride (BaCl2, 1 mM), Ruthenium red (30 μM), tetrandrine (10 μM) and amiloride (1 mM), all from Sigma Aldrich. For p38 inhibition, SB202190 (20 μM, Sigma Aldrich) or BIRB796 (10 μM, Axon Medchem) dissolved in DMSO was used. The wells were washed twice with PBS and new medium with inhibitor was added. For RNA interference, FlexiTube siRNA Premixes against MAPK11 (SI00606053), MAPK14 (SI00300769) and All Star Negative Control siRNA (SI03650318) from Qiagen was used. A549 forward was transfected using 25 nM final siRNA concentration in 24-well plate. After 48 hours, knockdown was examined by Western blot (anti-p38, 1:1000, Cell Signaling) and RT-PCR (MAPK14, QT00079345, QIAGEN).
(§3) To examine if functional ion channels are important for the tumoricidal activity of HAMLET, A549 lung carcinoma cells in suspension were pretreated with the channel inhibitors for 30 minutes and exposed to increasing concentrations of HAMLET for three hours.

[2] = tested on: p38, HSP27, ERK1/2 in kidney and lung carcinoma cells; assay: MAPK phosphorylation (phospho-MAPK antibody arrays, Western blot); format: cell-based, human
From the text: Equal volumes of lysates were separated by SDS-PAGE on 4-12% Bis-Tris gels (Invitrogen) and blotted onto PVDF membranes. For other Western blots, 200,000 cells were allowed to adhere overnight in a 6-well plate. After HAMLET treatment the cells were washed with PBS and lysed in M-PER lysis buffer (Pierce) containing Complete protease inhibitor cocktail and PhosSTOP phosphatase inhibitor cocktail (both from Roche). The detached cells were collected by centrifugation. The lysates were cleared by centrifugation and protein concentrations were measured using the DC Protein Assay (Bio-Rad Laboratories, Hercules, Calif.). Equal amounts of protein were separated by SDS-PAGE on 4-12% Bis-Tris gels (Invitrogen) and blotted onto PVDF membranes (GE Healthcare). Membranes were saturated with BSA (GAPDH) or nonfat dry milk (phospho-p38, p38, phospho-ERK1/2, ERK1/2) and incubated with anti-p38, anti-phospho-p38, anti-ERK1/2, anti-phospho-(Thr202/Tyr204)-p44/42 (all 1:500-1000, Cell Signaling Technology), anti-ATF6 (1:1000, IMG-273, Imgenex), anti-phospho-eIF2α (Ser51), (1:500, Cell Signaling Technology) or anti-GAPDH (1:3000-5000, Novus Biologicals) antibodies followed by horseradish peroxidase-conjugated anti-rabbit (1:1000, DakoCytomation, Glostrup, Denmark) or anti-mouse (1:40000-50000, Novus Biologicals) antibodies for staining. Bound antibodies were detected with ECL Plus Western Blotting Reagent (GE Healthcare, Little Chalfont, UK) and GelDoc equipment (Bio-Rad Laboratories, Hercules, Calif.). If required, membranes were stripped with Restore Western Blot Stripping Buffer (Pierce, Rockford, Ill.), blocked and reprobed with new antibodies. MAP kinase phosphorylation was analyzed on a Human Phospho-MAPK array (Proteome Profiler Array, R&D Systems) as per the manufacturer's instruction. Band and spot intensities were quantified using ImageJ (Abramoff et al., July 2004, Biophotonics International). Cytokine quantification (IL6, IL8, TNFα) was performed on an […] 1000 immunoassay system (Siemens Diagnostics).
P38 MAPKs are activated by dual phosphorylation on conserved threonine and tyrosine residues by MKK3/6 and when phosphorylated, a wide variety of effector proteins, including MAPKAPK2 kinases, HSP27 chaperones and ATF2 and CHOP transcription factors become active (Cuenda et al., 2007, Biochimica et Biophysica Acta 1773: 1358-1375).

[3] = tested on: kidney carcinoma (A498) cells; assay: cell death assay with p38 inhibitors; format: cell-based, human; details: SB202190 20 μM or BIRB796 10 μM; HAMLET 3 h
Protocol: FIG. 4. p38 inhibition rescues carcinoma and lymphoma cells from death and morphological change in response to HAMLET. (A, B) p38 inhibition (SB202190, 20 μM) rescued carcinoma (A549 and A498) and T-cell lymphoma (Jurkat) cells from death in response to HAMLET (7-49 μM, 3 h). Viability was quantified by Trypan blue exclusion (A) or as ATP levels (B). Data are means+SEMs for 3 independent experiments. (C) Real-time images of cell morphology after HAMLET exposure, showing that p38 inhibition prevents morphological changes in carcinoma cells (nuclear condensation, rounding up and blebbing). (D-E) A549 lung carcinoma cells were transfected using siRNA against p38α/MAPK14 and/or p38β/MAPK11 or non-targeting siRNA. Relative MAPK11 and MAPK14 mRNA levels are shown (MAPK/GAPDH, in % of non-transfected cells) as means+SEMs for 4 independent experiments. […] (F) The cytotoxic effect of HAMLET was quantified 48 hours after transfection as reduction in ATP levels. […]
FIG. 12. […] Viability was quantified by ATP levels.
Cells were detached from cell culture flasks with versen (0.2 g EDTA in 200 ml H2O and 800 ml PBS), washed with PBS and resuspended in serum-free RPMI-1640. […] Cell death was quantified by trypan blue exclusion (Chroma Gesellschaft Schmid & Co) or by measuring ATP levels (ATPlite Kit, PerkinElmer, Infinite 200, Tecan). […]

[4] = tested on: A549 lung carcinoma cells; assay: cell death assay (trypan blue exclusion, ATP levels); format: cell-based, human; details: SB202190 20 μM or BIRB796 10 μM; HAMLET 3 h
Protocol: as §1, §2, §3
A549 cells were seeded to a density of 0.8-1.0×10^6 cells/well in RPMI without FCS. Different volumes of HAMLET/oleate and oleic acid solutions were added. The cells were incubated for 1 hour at 37° C. 5% CO2 for 1 hour before 50 μl of FCS (5% final concentration) were added to the wells. The cells were then further incubated for additional 2 hours before the viability were determined by trypan blue exclusion and ATP measurements.

`Oc1ccc(-c2nc(-c3ccncc3)c(-c3ccc(F)cc3)[nH]2)cc1` [SB202190] was tested, and the “effect of p38 inhibitor on death in response to HAMLET” value (shortened to “effect of p38 inhibitor on death”) [1] was “rescued”, the “effect of p38 inhibitor on p38 and HSP27 phosphorylation upon HAMLET treatment” value [2] was “marked decrease in p38 and HSP27 phosphorylation” and the “effect of p38 inhibitor on death” value [3] was “rescued”. The “effect of p38 inhibitor on death” value [4] was “rescued; also recorded: clearly attenuated”.
